# Measured values reported in patent publication US20050234063A1, “Therapeutic agent for brain hemorrhage” (priority 2002, published 2005).
# Experiments:
# [1] = system: subarachnoid bleeding model animal; conditions: subarachnoid bleeding model animal injected with one's own blood; Non-patent Reference 6; cited from earlier work
# [2] = system: ischemic reperfusion model; conditions: Non-patent Reference 5; cited from earlier work
# [3] = system: cerebral hemorrhage model; experiment: Neurological symptom score in collagenase-induced rat cerebral hemorrhage model; format: in vivo; conditions: 10 or 20 mg/kg/h; for neurological symptom score on the 2nd day after collagenase injection, versus physiological saline administration group / neurological symptom score on the 14th day after collagenase injection, versus physiological saline administration group: 24 h intravenous continuous injection started 30 min after collagenase, Steel test
# Protocol: A cerebral hemorrhage model was prepared by the following procedure by adding a partial modification to the method of Rosenberg et al. (Stroke, 21, 801-807, 1990). Each of male Sprague-Dawley rats (240 to 330 g in body weight, Charles River Japan) was subjected to continuous anesthesia with 1% halothane under spontaneous respiration and fixed on a stereotaxic instrument. The skull was exposed by carrying out median skin incision of the head of the animal, and a small bone window was opened on the skull using a dental drill (C730, MINIMO) at a position of 0.2 mm in the front side (A: +0.2 mm) and 3.0 mm in the left side (L: +3.0 mm) based on dBregma in accordance with the Paxinos's brain pictorial book (Paxinos G and Watson C, The rat brain in the stereotaxic coordinates (1986) Academic Press, New Yolk). An administration needle of 30G was inserted to a depth of 6.0 mm (H: −6.0 mm) from the skull and then pulled out 0.3 mm to ensure an administration space (central part of the striatum). A solution of collagenase (10 units/ml, type IV, Lot 99H8641, Sigma) was injected at a flow rate of 0.2 μl/min for 7 minutes (1.4 μl) using a micro-syringe pump (Neuroscience Syringe Pump 100, Muromachi). The administration needle was slowly pulled out after completion of the injection, scalp suture was carried out, and then the animal was revived by warming up under an incandescent lamp. It has been reported that a cerebral hemorrhage locally limited to the striatum is generated 0.5 to 4 hours after injection of collagenase in this rat cerebral hemorrhage model (Stroke, 27, 2312-2320, 1996).
# As the administration of medicament, zonampanel monohydrate (hereinafter, compound a) was used. After 30 minutes of the collagenase injection, intravenous injection of zonampanel was started via a canula indwelled in the common jugular vein. The compound a was dissolved in physiological saline at a concentration of 10 mg/5 ml or 20 mg/5 ml and then subjected to 24 hours of intravenous continuous injection under shading at a dose of 10 mg/5 ml/kg/h (compound a (10 mg/kg) administration group) or 20 mg/5 ml/kg/h (compound a (20 mg/kg) administration group). In the control group, physiological saline was subjected to 24 hours of intravenous continuous injection at a dose of 5 ml/kg/h (physiological saline administration group). The number of animals in respective groups was 6 animals in the compound a (10 mg/kg) administration group, 9 animals in the compound a (20 mg/kg) administration group, and 9 animals in the physiological saline administration group.
# Staring after 30 minutes of the injection of collagenase into the striatum, the compound a was subjected to 24 hours of intravenous continuous injection at a dose of 10 mg/kg/h (compound a (10 mg/kg) administration group, 6 cases) or 20 mg/kg/h (compound a (20 mg/kg) administration group, 9 cases), and a neurological symptom of each animal was observed before the injection of collagenase and on the 2nd and 14th days after the collagenase injection. Physiological saline was administered to the control group (physiological saline administration group, 9 cases).
# Scoring criteria of the neurological symptom are as follows. This was scored by 5 steps (O to 4) based on the behavior of each animal when the waist part of the animal was pushed toward the front side.
# Score 1: Turning right is predominant but sometimes turns left.
# Score 0: Normal, no left-right turning inclination. […]
# [4] = system: cerebral infarction models; conditions: various cerebral infarction models; reported; cited from earlier work
# [5] = disclosed in Patent Reference 1 (WO 96/10023); cited from earlier work
# AMPA receptor = conditions: disclosed in Patent Reference 1 (WO 96/10023); cited from earlier work
SMILES,effect on vascular permeability acceleration [1],time after drug administration from which the neurological symptoms improving action is observed [2],"neurological symptom score on the 2nd day after collagenase injection, versus physiological saline administration group ([3]; listed as zonampanel, monohydrate)","neurological symptom score on the 2nd day after collagenase injection, versus physiological saline administration group ([3]; monohydrate)","neurological symptom score on the 14th day after collagenase injection, versus physiological saline administration group ([3]; p<0.05, listed as zonampanel, monohydrate)","neurological symptom score on the 14th day after collagenase injection, versus physiological saline administration group ([3]; p<0.05, monohydrate)","change of neurological symptom score as the days elapsed, in comparison with the control ([3]; 24 h intravenous continuous injection, days 0 to 14 (FIG. 1))",effect on progress of infarction foci [4],water-solubility [5],AMPA receptor binding activity (AMPA receptor)
CC1=NN=C(c2ccc(N)cc2)c2cc3c(cc2C1)OCO3 [GYK152466],inhibits vascular permeability acceleration,–,–,–,–,–,–,–,–,–
"O.O=C(O)Cn1c(=O)c(=O)[nH]c2cc([N+](=O)[O-])c(-n3ccnc3)cc21 [compound a, [7-(1H-imidazol-1-yl)-6-nitro-2,3-dioxo-3,4-dihydroquinoxalin-1(2H)-yl]acetic acid monohydrate]",–,≥ 24 hours,does not show significant effect,almost the same,significant improving effect,significantly light,improving tendency,inhibit progress of infarction foci,high,potent and selective
